The target in test [1] is T1, recombinant hGYS1/GN1 protein (Homo sapiens, UniProt P13807).
T1 sequence (P13807 1-737): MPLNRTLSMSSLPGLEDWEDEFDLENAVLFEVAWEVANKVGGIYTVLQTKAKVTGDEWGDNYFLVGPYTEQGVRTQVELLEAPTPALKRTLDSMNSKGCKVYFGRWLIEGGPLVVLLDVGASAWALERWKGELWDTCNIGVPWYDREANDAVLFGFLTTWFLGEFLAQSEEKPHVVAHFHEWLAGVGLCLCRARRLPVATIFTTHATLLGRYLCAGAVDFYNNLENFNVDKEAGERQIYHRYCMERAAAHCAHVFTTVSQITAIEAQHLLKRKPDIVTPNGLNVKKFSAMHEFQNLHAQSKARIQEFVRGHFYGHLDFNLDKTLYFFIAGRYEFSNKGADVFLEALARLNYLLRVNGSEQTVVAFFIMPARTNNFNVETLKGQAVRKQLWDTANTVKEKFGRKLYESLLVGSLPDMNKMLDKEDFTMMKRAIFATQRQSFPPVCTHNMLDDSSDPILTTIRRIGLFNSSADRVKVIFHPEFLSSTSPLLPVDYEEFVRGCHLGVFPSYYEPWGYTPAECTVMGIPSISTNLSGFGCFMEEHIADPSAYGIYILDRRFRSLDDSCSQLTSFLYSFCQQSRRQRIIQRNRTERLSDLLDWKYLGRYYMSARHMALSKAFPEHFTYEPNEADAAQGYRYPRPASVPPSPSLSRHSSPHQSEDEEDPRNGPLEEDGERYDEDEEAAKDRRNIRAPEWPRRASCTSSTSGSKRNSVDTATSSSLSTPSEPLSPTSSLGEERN
T1 sequence (P46976 1-350 partner): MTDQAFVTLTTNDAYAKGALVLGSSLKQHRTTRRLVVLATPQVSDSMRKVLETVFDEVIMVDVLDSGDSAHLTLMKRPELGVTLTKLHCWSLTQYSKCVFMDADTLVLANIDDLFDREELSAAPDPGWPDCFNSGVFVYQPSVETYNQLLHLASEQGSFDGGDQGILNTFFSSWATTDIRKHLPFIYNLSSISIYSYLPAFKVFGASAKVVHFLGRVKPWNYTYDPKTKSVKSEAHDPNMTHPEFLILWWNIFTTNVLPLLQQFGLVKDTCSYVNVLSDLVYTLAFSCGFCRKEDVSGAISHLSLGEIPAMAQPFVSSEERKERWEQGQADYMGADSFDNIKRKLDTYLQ
Briefly: GYS1 coupled enzyme assay (PK/LDH). Particulars: geometric mean of at least 2 assay runs; NADH absorbance at 340 nm. The format is biochemical. In a few lines: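 Recombinant hGYS1/GN1 (50 nM) with 0.8 mM UDP-glucose, 0.2% glycogen and 1 mM glucose-6-phosphate in Tris pH 7.5, 2.5% DMSO. UDP formation coupled via PK/LDH to NADH oxidation, read at 340 nm over 10 min. Control-normalized slopes fit to Hill equation; IC50 as geometric mean of ≥2 runs.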

Test [2] has as its target T2, recombinant hGYS2/GN1 protein (Homo sapiens, UniProt P54840).
T2 sequence (P54840 1-703): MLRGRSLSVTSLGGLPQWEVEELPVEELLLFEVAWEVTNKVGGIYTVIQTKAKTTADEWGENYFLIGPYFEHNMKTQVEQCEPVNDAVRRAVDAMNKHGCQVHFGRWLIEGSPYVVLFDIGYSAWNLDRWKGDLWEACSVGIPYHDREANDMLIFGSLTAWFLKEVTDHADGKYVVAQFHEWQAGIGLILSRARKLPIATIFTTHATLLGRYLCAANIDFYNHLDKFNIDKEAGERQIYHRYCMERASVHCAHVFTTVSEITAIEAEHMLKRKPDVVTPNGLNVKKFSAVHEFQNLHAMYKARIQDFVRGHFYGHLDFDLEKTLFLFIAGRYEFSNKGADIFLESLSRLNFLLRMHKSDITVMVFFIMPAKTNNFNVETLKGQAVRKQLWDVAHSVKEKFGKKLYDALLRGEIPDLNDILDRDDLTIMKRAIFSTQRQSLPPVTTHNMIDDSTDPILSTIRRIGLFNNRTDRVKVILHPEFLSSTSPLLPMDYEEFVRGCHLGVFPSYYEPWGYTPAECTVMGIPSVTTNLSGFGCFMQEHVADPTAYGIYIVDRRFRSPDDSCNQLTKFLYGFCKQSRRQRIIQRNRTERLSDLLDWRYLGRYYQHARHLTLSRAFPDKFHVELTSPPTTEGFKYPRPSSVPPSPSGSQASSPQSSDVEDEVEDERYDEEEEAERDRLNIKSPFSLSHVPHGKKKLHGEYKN
T2 sequence (P46976 1-350 partner): T1 sequence (P46976 1-350 partner)
Put plainly: GYS2 coupled enzyme assay (PK/LDH). The class given is biochemical. The settings on record: geometric mean of at least 2 assay runs; NADH absorbance at 340 nm. An excerpt: The GYS2 coupled enzyme assay is a kinetic biochemical assay that indirectly quantifies the rate of glycogen synthesis by coupling the conversion of GYS2 substrate UDP-glucose into UDP with downstream enzymatic reactions. UDP is released from UDP-glucose as glucose monomers are linked into the growing glycogen strand by GYS2. The coupled assay then proceeds with pyruvate kinase utilizing UDP and phospho(enol)pyruvate (PEP) to form pyruvate. Lactate dehydrogenase then converts pyruvate and NADH into lactate and NAD+. Oxidation of NADH to NAD+ can be measured continuously with a plate reader by quantifying the decrease in NADH absorbance at 340 nm over time.
Compounds that inhibit the hGYS2 enzyme and, subsequently, the downstream conversion of NADH to NAD+, were tested using assay ready plates (black, clear bottom 384 well plates) in a final DMSO reaction volume of 2.5% DMSO. The Assay Buffer contained 50 mM Tris pH 7.5, 2 mM MgCl2, and 100 mM KCl. Fresh stocks of BSA at a final concentration of 0.02% and TCEP 1 mM were added before splitting buffer into hGYS2 buffer and substrate buffer. To the hGYS2 buffer, rabbit liver glycogen was added at a final concentration of 0.2% glycogen. Glucose-6-Phosphate was added at 2 mM, recombinant hGYS2/GN1 protein was added at 200 nM to the substrate buffer, phosphoenolpyruvate (PEP) was added at 2 mM, UDP-Glucose was added at 2 mM, NADH was added at 0.6 mM, and Pyruvate Kinase/Lactate Dehydrogenase was added at 20 units/mL. The reaction was initiated by mixing hGYS2 buffer and substrate buffer at a 1:1 ratio. Both buffers were plated using a liquid dispensing device with hGYS2 buffer plated first followed by the substrate buffer. Plates were spun briefly to eliminate air bubbles and are immediately read in continuous mode at an absorbance of 340 nm, for 10 time points in one-minute increments, for a total of 10 minutes. The slope from these 10 time points was normalized to the positive and negative control wells. The duplicate % inhibition values are then averaged and fit to a Hill equation for dose response according to the Levenberg-Marquardt algorithm with the Hill equation maximum set to 100 and the minimum set to 0.
The results are shown in Table 5 below, which reports the IC50 of each compound. Unless otherwise specified, IC50 values are reported as the geometric mean of at least 2 assay runs on separate days. As shown in the table below, the compounds of the present invention are not potent inhibitors of human GYS2. […] Each run represents the average of a technical replicate, where each compound was assayed twice in the same plate.

As for `CC(=O)Nc1ccc(F)cc1[C@H](NC(=O)C1CC1)c1ccc(C(C)C)cc1` (single isomer, unassigned) [compound 44], the concentration for half-maximal inhibition (IC50) was 378 nM in test [1] and above 100000 nM in test [2].
`CC(C)c1ccc([C@@H](NC(=O)[C@H]2C[C@@H]2F)c2ccccc2)cc1` [compound 36, (1R,2S)-2-fluoro-N-((S)-(4-isopropylphenyl)(phenyl)methyl)cyclopropane-1-carboxamide]: the IC50 is 418 nM in test [1] and above 100000 nM in test [2].
In the same order, the values of `CC(C)c1ccc([C@@H](NC(=O)C2CC2)c2ccccc2NC(N)=O)cc1` [compound 54, (R)-N-((4-isopropylphenyl)(2-ureidophenyl)methyl)cyclopropanecarboxamide] are 346 nM and above 100000 nM.
Take `CC(=O)N1CC(C(=O)Nc2ccccc2[C@H](NC(=O)C2CC2)c2ccc(C(C)C)cc2)C1` [compound 37, (R)-1-acetyl-N-(2-(cyclopropanecarboxamido(4-isopropylphenyl)methyl)phenyl)azetidine-3-carboxamide]: the half-maximal inhibitory concentration (IC50) is 1060 nM in test [1] and above 100000 nM in test [2].
On to `CC(C)c1ccc([C@@H](NC(=O)C2CC2)c2ccccc2N/C(N)=N/C#N)cc1` [compound 19, (R,E)-N-((2-(2-cyanoguanidino)phenyl)(4-isopropylphenyl)methyl)cyclopropanecarboxamide], for which the IC50 was 304 nM in test [1] and above 100000 nM in test [2].
The corresponding values for `CC(C)c1ccc([C@@H](NC(=O)C2CC2)c2ccccc2O)cc1` [compound 67, (R)-N-((2-hydroxyphenyl)(4-isopropylphenyl)methyl)cyclopropanecarboxamide] are 293 nM and above 100000 nM.
As for `CC(C)c1ccc([C@@H](NC(=O)C2CC2)c2cccc3[nH]c(=O)oc23)cc1` (single isomer, unassigned) [compound 15], the IC50 is 883 nM in test [1] and above 100000 nM in test [2].
In the same order, the values of `CC(C)c1ccc([C@@H](NC(=O)C2CC2)c2ccccc2NC(=O)C2CNC2)cc1` [compound 48, (R)-N-(2-(cyclopropanecarboxamido(4-isopropylphenyl)methyl)phenyl)azetidine-3-carboxamide] are 1060 nM and above 100000 nM.
In the same order, the values of `CC(=O)Nc1ccccc1[C@H](NC(=O)C1CC1)c1ccc(C(C)C)cn1` [compound 46, (S)-N-((2-acetamidophenyl)(5-isopropylpyridin-2-yl)methyl)cyclopropanecarboxamide] are 1420 nM and above 100000 nM.
In the case of `Cc1ccccc1[C@H](NC(=O)C1CC1)c1ccc(C(C)C)cc1` (single isomer, unassigned) [compound 65], the results for the half-maximal inhibitory concentration (IC50) in test [1] and in test [2] were 514 nM and above 100000 nM, respectively.
As for `CC(C)c1ccc([C@@H](NC(=O)C2CC2)c2cccc(O)c2)cc1` [compound 62, (R)-N-((3-hydroxyphenyl)(4-isopropylphenyl)methyl)cyclopropanecarboxamide], the IC50 was 376 nM in test [1] and above 100000 nM in test [2].
As for `CC(C)c1ccc([C@@H](NC(=O)C2CC2)c2ccn[nH]2)cc1` [compound 56, (R)-N-((4-isopropylphenyl)(1H-pyrazol-5-yl)methyl)cyclopropanecarboxamide], the values for the IC50 in test [1] and in test [2] were 372 nM and above 100000 nM, respectively.

(Values after patent publication US20260085034A1, “N-(BENZHYDRYL)CYCLOALKYLCARBOXAMIDE DERIVATIVES AS INHIBITORS OF GLYCOGEN SYNTHASE 1 (GYS1) AND METHODS OF USE THEREOF” (Maze Therapeutics, Inc., priority 2022, published 2026).)
